Test results reported in patent publication US20240409536A1, “COMPOUNDS AND METHODS FOR MODULATING SPLICING” (REMIX THERAPEUTICS INC., priority 2021, published 2024).
Counter-ions that a name gives are not always drawn.

Legend:
[1] = system: HTT mRNA; assay: Gene panel canonical junction qPCR assay, HTT CJ mRNA decrease; type: cell-based, human; conditions: Homo sapiens, canonical junction qPCR, read-out: HTT IC50 (decrease in CJ mRNA levels)
Outline: (§1)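 A673 or K562 cells treated with compound; canonical exon-exon junction mRNA quantified by cDNA synthesis and RT-qPCR with junction-spanning primer/probe, normalized to GAPDH, GUSB or PPIA and DMSO (2^(−ΔΔCt)). Percent response from set ΔCt assay windows fitted to 4-parameter logistic; IC50 for CJ decrease.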

[2] = system: MYB mRNA; assay: Gene panel canonical junction qPCR assay, MYB CJ mRNA decrease; type: cell-based, human; conditions: Homo sapiens, canonical junction qPCR, read-out: MYB IC50 (decrease in CJ mRNA levels)
Outline: as §1

[3] = system: SMN2 mRNA; assay: Gene panel canonical junction qPCR assay, SMN2 CJ mRNA decrease; type: cell-based, human; conditions: Homo sapiens, canonical junction qPCR, read-out: SMN2 IC50 (decrease in CJ mRNA levels)
Outline: as §1

[4] = system: Target C mRNA; assay: Gene panel canonical junction qPCR assay, Target C CJ mRNA decrease; type: cell-based; conditions: Homo sapiens, canonical junction qPCR, read-out: Target C IC50 (decrease in CJ mRNA levels)
Outline: as §1

[5] = system: HiBiT-tagged MYB protein; assay: HiBiT protein abundance assay, MYB (K562 HiBiT knock-in cells); type: cell-based, human; conditions: 24 hours
Outline: (§2)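 K562 cells with endogenous HiBiT knock-in tag, 10-point 3-fold dilutions (top 10 μM final, ≤0.25% DMSO), 24 h at 37 °C. Lytic Nano-Glo HiBiT luminescence, normalized to DMSO and unmodified K562 baselines; IC50 is concentration giving 50% protein abundance from four-parameter fit.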

[6] = system: HiBiT-tagged HTT protein; assay: HiBiT protein abundance assay, HTT (K562 HiBiT knock-in cells); type: cell-based, human; conditions: 24 hours
Outline: as §2

[7] = system: K562 cells; assay: Cell Titer Glo 2.0 cell viability assay in K562 cells; conditions: 72 hours

Compound	IC50 [1] [µM]	IC50 [2] [µM]	IC50 [3] [µM]	IC50 [4] [µM]	IC50 [5] [µM]	IC50 [6] [µM]	Viability [7]
COc1nc(NC(=O)c2ccc(N3CCNCC3)c3ccnnc23)cn2cc(C)nc12 [Compound 179, N-{8-methoxy-2-methylimidazo[1,2-a]pyrazin-6-yl}-5-(piperazin-1-yl)cinnoline-8-carboxamide]	1 to 10	< 0.1	< 0.1	> 10	< 0.1	1 to 10	B (B represents 100-1000 nM)
Cc1c(O)c(NC(=O)c2ccc(N3CCNCC3)c3ccnnc23)cc2cn(C)nc12 [Compound 181, N-(6-hydroxy-2,7-dimethylindazol-5-yl)-5-(piperazin-1-yl)cinnoline-8-carboxamide]	> 10	0.1 to 1	< 0.1	> 10	1 to 10	> 10	C (C represents 1000-9999 nM)
Cc1cn2cc(NC(=O)c3ccc(N4CCNCC4)c4ccnnc34)cc(C(C)O)c2n1 (stereo not drawn) [Compound 182, N-[8-(1-hydroxyethyl)-2-methylimidazo[1,2-a]pyridin-6-yl]-5-(piperazin-1-yl)cinnoline-8-carboxamide trifluoroacetate]	> 10	> 10	1 to 10	> 10	> 10	> 10	D (D represents greater than 10 μM in K562 cells)
COc1cc2c(N3CCNCC3)ccc(C(=O)Nc3cc(F)c4nc(C)cn4c3)c2nn1 [Compound 183, N-{8-fluoro-2-methylimidazo[1,2-a]pyridin-6-yl}-3-methoxy-5-(piperazin-1-yl)cinnoline-8-carboxamide]	1 to 10	< 0.1	< 0.1	> 10	< 0.1	0.1 to 1	B (B represents 100-1000 nM)
Cc1cn2cc(NC(=O)c3ccc(N4CCN[C@@H](C)C4)c4nccnc34)cc(F)c2n1 [Compound 187, N-{8-fluoro-2-methylimidazo[1,2-a]pyridin-6-yl}-8-(3-methylpiperazin-1-yl) quinoxaline-5-carboxamide]	1 to 10	< 0.1	< 0.1	> 10	< 0.1	1 to 10	B (B represents 100-1000 nM)
Cc1cn2cc(NC(=O)c3ccc(N4CCC5(CCN5)CC4)c4nccnc34)cc(F)c2n1 [Compound 189, 8-{1,7-diazaspiro[3.5]nonan-7-yl}-N-{8-fluoro-2-methylimidazo[1,2-a]pyridin-6-yl}quinoxaline-5-carboxamide]	0.1 to 1	< 0.1	< 0.1	1 to 10	< 0.1	0.1 to 1	B (B represents 100-1000 nM)
CNC1CCN(c2ccc(C(=O)Nc3cc(F)c4nc(C)cn4c3)c3nccnc23)C1 (stereo not drawn) [Compound 190, N-{8-fluoro-2-methylimidazo[1,2-a]pyridin-6-yl}-8-[3-(methylamino)pyrrolidin-1-yl]quinoxaline-5-carboxamide]	1 to 10	0.1 to 1	< 0.1	1 to 10	0.1 to 1	1 to 10	A (A represents <100 nM)
CCNC1CCN(c2ccc(C(=O)Nc3cc(F)c4nc(C)cn4c3)c3nccnc23)CC1 [Compound 191, 8-[4-(ethylamino)piperidin-1-yl]-N-{8-fluoro-2-methylimidazo[1,2-a]pyridin-6-yl}quinoxaline-5-carboxamide]	0.1 to 1	< 0.1	< 0.1	> 10	< 0.1	0.1 to 1	B (B represents 100-1000 nM)
CNCC1CCN(c2ccc(C(=O)Nc3cc(F)c4nc(C)cn4c3)c3nccnc23)CC1 [Compound 192, N-{8-fluoro-2-methylimidazo[1,2-a]pyridin-6-yl}-8-{4-[(methylamino)methyl]piperidin-1-yl}quinoxaline-5-carboxamide trifluoroacetate]	1 to 10	1 to 10	0.1 to 1	1 to 10	1 to 10	1 to 10	C (C represents 1000-9999 nM)
CNC1CCN(c2ccc(C(=O)Nc3cc(F)c4nc(C)cn4c3)c3nc(C)ccc23)C1 (stereo not drawn) [Compound 196, N-{8-fluoro-2-methylimidazo[1,2-a]pyridin-6-yl}-2-methyl-5-[3-(methylamino)pyrrolidin-1-yl]quinoline-8-carboxamide 2,2,2-trifluoroacetate]	1 to 10	0.1 to 1	< 0.1	1 to 10	< 0.1	1 to 10	A (A represents <100 nM)
Cc1cnc2c(N3CCNCC3)ccc(C(=O)Nc3cc(F)c4nc(C)cn4c3)c2n1 [Compound 197, N-{8-fluoro-2-methylimidazo[1,2-a]pyridin-6-yl}-3-methyl-8-(piperazin-1-yl)quinoxaline-5-carboxamide; trifluoroacetic acid]	1 to 10	0.1 to 1	< 0.1	> 10	< 0.1	0.1 to 1	C (C represents 1000-9999 nM)
COCCOc1cc2c(N3CCNCC3)ccc(C(=O)Nc3cc(F)c4nc(C)cn4c3)c2nn1 [Compound 199, N-{8-fluoro-2-methylimidazo[1,2-a]pyridin-6-yl}-3-(2-methoxyethoxy)-5-(piperazin-1-yl)cinnoline-8-carboxamide]	> 10	0.1 to 1	< 0.1	> 10	< 0.1	1 to 10	B (B represents 100-1000 nM)
Cc1cnc2c(N3CCC(N(C)C)CC3)ccc(C(=O)Nc3cc(F)c4nc(C)cn4c3)c2n1 [Compound 200, 8-[4-(dimethylamino)piperidin-1-yl]-N-{8-fluoro-2-methylimidazo[1,2-a]pyridin-6-yl}-3-methylquinoxaline-5-carboxamide]	0.1 to 1	< 0.1	< 0.1	0.1 to 1	< 0.1	< 0.1	B (B represents 100-1000 nM)
CN[C@@H]1CCN(c2ccc(C(=O)Nc3cc(F)c4nc(C)cn4c3)c3nc(OC)cnc23)C1 [Compound 204, (R)—N-{8-fluoro-2-methylimidazo[1,2-a]pyridin-6-yl}-3-methoxy-8-[3-(methylamino)pyrrolidin-1-yl]quinoxaline-5-carboxamide; trifluoroacetic acid]	> 10	1 to 10	< 0.1	> 10	0.1 to 1	1 to 10	A (A represents <100 nM)
COc1cnc2c(N3C[C@@H](C)N[C@@H](C)C3)ccc(C(=O)Nc3cc(F)c4nc(C)cn4c3)c2n1 [Compound 205, 8-[(3R,5S)-3,5-dimethylpiperazin-1-yl]-N-{8-fluoro-2-methylimidazo[1,2-a]pyridin-6-yl}-3-methoxyquinoxaline-5-carboxamide; trifluoroacetic acid]	0.1 to 1	< 0.1	< 0.1	0.1 to 1	< 0.1	0.1 to 1	B (B represents 100-1000 nM)
COc1cnc2c(N3CCC(N(C)C)CC3)ccc(C(=O)Nc3cc(F)c4nc(C)cn4c3)c2n1 [Compound 206, 8-[4-(dimethylamino)piperidin-1-yl]-N-{8-fluoro-2-methylimidazo[1,2-a]pyridin-6-yl}-3-methoxyquinoxaline-5-carboxamide; trifluoroacetic acid]	0.1 to 1	0.1 to 1	< 0.1	0.1 to 1	< 0.1	0.1 to 1	B (B represents 100-1000 nM)
COc1cnc2c(N3CCNCC3)ccc(C(=O)Nc3cc(F)c4nc(C)cn4c3)c2n1 [Compound 207, N-{8-fluoro-2-methylimidazo[1,2-a]pyridin-6-yl}-3-methoxy-8-(piperazin-1-yl)quinoxaline-5-carboxamide; bis(trifluoroacetic acid)]	0.1 to 1	< 0.1	< 0.1	> 10	< 0.1	0.1 to 1	B (B represents 100-1000 nM)
Cc1cnc2c(C(=O)Nc3cc(F)c4nc(C)cn4c3)ccc(N3CCC(N(C)C)CC3)c2n1 [Compound 208, 8-[4-(dimethylamino)piperidin-1-yl]-N-{8-fluoro-2-methylimidazo[1,2-a]pyridin-6-yl}-2-methylquinoxaline-5-carboxamide; bis(trifluoroacetic acid)]	1 to 10	< 0.1	< 0.1	> 10	< 0.1	1 to 10	A (A represents <100 nM)
